Our source for the melting point values is patent publication US7229987B2, “Multicyclic compounds for use as melanin concentrating hormone antagonists in the treatment of obesity and diabetes” (Eli Lilly and Company, priority 2002, dated 2007).

Counter-ions that a name gives are not always drawn. Some results are limits rather than exact numbers.

`O=C1CCN(CCCOc2ccc(-c3nnc(CSCCOc4ccccc4)o3)cc2)CC1` [Example 260, 1-(3-{4-[5-(2-Phenoxy-ethylsulfanylmethyl)-[1,3,4]oxadiazol-2-yl]-phenoxy}-propyl)-piperidin-4-one]: the melting point (usually the temperature of the solid-liquid transition) was in the range of 55 to 57 °C.

`CN(C)CCCCNC(=O)c1cccc(-c2nnc(CSCCOc3ccccc3)o2)c1` [Example 61, N-(4-dimethylamino-butyl)-3-[5-(2-phenoxy-ethylsulfanylmethyl)-[1,3,4]oxadiazol-2-yl]-benzamide] came in with a melting point of 38 to 42 °C. Take `CN(C)CCCOc1ccc(-c2nnc(CCc3ccc4ccccc4c3)o2)cc1` (as salt: hydrochloride) [Example 205, Dimethyl-{3-[4-(5-naphthalene-2-ylethyl-[1,3,4]oxadiazol-2-yl)phenoxy]propyl}amine]: the melting point was 208 to 210 °C. In the case of `COc1ccc(OCCSCc2nnc(-c3ccc(OCCCN(C)C)cc3)o2)cc1` [Example 277, [3-(4-{5-[2-(4-methoxy-phenoxy)-ethylsulfanylmethyl]-[1,3,4]oxadiazol-2-yl}-phenoxy)-propyl]-dimethyl-amine], the melting point is 77.5 to 78 °C.

As to `CN(C)CCCOc1ccc(-c2nnc(CSCCOc3ccccc3)n2Cc2ccccc2)cc1.O=C(O)C(=O)O` [Example 246, (3-{4-[4-benzyl-5-(2-phenoxyethylsulfanylmethyl)-4H-[1,2,4]triazol-3-yl]-phenoxy}-propyl)-dimethyl-amine, oxalic acid salt], the melting point was in the range of 88 to 92 °C. Compound `CN(C)CCCOc1ccc(-c2nnc(CSCCOc3ccc4ccccc4c3)o2)cc1` [Example 279, [3-(4-{5-[2-(2-naphthoxy)-ethylsulfanylmethyl]-[1,3,4]oxadiazol-2-yl}-phenoxy)-propyl]-dimethyl-amine] registered a melting point of 97 to 98 °C. In turn, `NCCCOc1ccc(-c2nnc(CSCCOc3ccccc3)o2)cc1` [Example 84, 3-{4-[5-(2-phenoxy-ethylsulfanylmethyl)-[1,3,4]oxadiazol-2-yl]-phenoxy}-propylamine] displayed a melting point of 30 to 35 °C.

`c1csc(SCc2nnc(-c3ccc(OCCCN4CCCCC4)cc3)o2)n1` (as salt: hydrochloride) [Example 226, 1-(3-{4-[5-(thiazol-2-ylsulfanylmethyl)-[1,3,4]oxadiazol-2-yl]phenoxy}propyl)piperdine] had a melting point of 174 to 176 °C. The compound `CN(C)CCCCCCCOc1ccc(-c2nnc(CSCCOc3ccccc3)o2)cc1` [Example 71, dimethyl-(7-{4-[5-(2-phenoxy-ethylsulfanylmethyl)-[1,3,4]oxadiazol-2-yl]-phenoxy}-heptyl)-amine] had a melting point of 39 to 40 °C. The value for `CN(C)CCCNC(=O)c1ccccc1-c1nnc(CSCCOc2ccccc2)o1` [Example 65, N-(3-dimethylamino-propyl)-2-[5-(2-phenoxy-ethylsulfanylmethyl)-[1,3,4]oxadiazol-2-yl]-benzamide] was 60 to 65 °C; that for `CN(C)CCCNC(=S)Nc1ccc(-c2nnc(CSCCOc3ccccc3)o2)cc1` [Example 118, 1-(3-dimethylamino-propyl)-3-{4-[5-(2-phenoxy-ethylsulfanylmethyl)-[1,3,4]oxadiazol-2-yl]-phenyl}-thiourea] was 136 to 139 °C; that for `O=C(NCCN1CCCC1)Nc1ccc(-c2nnc(CSCCOc3ccccc3)o2)cc1.O=C(O)C(=O)O` [Example 106, 1-{4-[5-(2-phenoxy-ethylsulfanylmethyl)-[1,3,4]oxadiazol-2-yl]-phenyl}-3-(2-pyrrolidin-1-yl-ethyl)-urea oxalate] was 111 to 115 °C. The compound `c1ccc(OCCSCc2nnc(-c3ccc(OCCCCN4CCCCCC4)cc3)o2)cc1` [Example 89, 1-(4-{4-[5-(2-phenoxy-ethylsulfanylmethyl)-[1,3,4]oxadiazol-2-yl]-phenoxy}-butyl)-azepane] registered a melting point of 35 to 38 °C. `NC(=O)Nc1ccc(-c2nnc(CSCCOc3ccccc3)o2)cc1` [Example 101, {4-[5-(2-phenoxy-ethylsulfanylmethyl)-[1,3,4]oxadiazol-2-yl]-phenyl}-urea]: the melting point is over 220 °C.

For the compound `c1ccc(OCCSCc2nnc(-c3ccc(OCCCN4CCCCC4)cc3)o2)cc1` [Example 75, 1-(3-{4-[5-(2-phenoxy-ethylsulfanylmethyl)-[1,3,4]oxadiazol-2-yl]-phenoxy}-propyl)-piperidine], the melting point was 65 °C.

The compound `CN1CCCC1CCOc1ccc(-c2nnc(CSCCOc3ccccc3)o2)cc1` (centres unmarked) [Example 96, 2-{4-[2-(1-methyl-pyrrolidin-2-yl)-ethoxy]-phenyl}-5-(2-phenoxy-ethylsulfanylmethyl)-[1,3,4]oxadiazole] returned a melting point of 46 to 50 °C. In turn, `CN(C)CCOc1ccc(-c2nnc(CSCCOc3ccccc3)o2)cc1` [Example 66, dimethyl-(2-{4-[5-(2-phenoxy-ethylsulfanylmethyl)-[1,3,4]oxadiazol-2-yl]-phenoxy}-ethyl)-amine] returned a melting point of 62 to 64 °C. `CN1CCC(Oc2ccc(-c3nnc(CSCCOc4ccccc4)o3)cc2)CC1.O=C(O)/C=C\C(=O)O` [Example 291, 1-methyl-4-{4-[5-(2-phenoxy-ethylsulfanylmethyl)-[1,3,4]oxadiazol-2-yl]-phenoxy}-piperidine; maleic acid salt] gave a melting point of 149 to 150 °C. Then `c1ccc(OCCSCc2nnc(-c3ccc(OCCCCN4CCSCC4)cc3)o2)cc1` [Example 94, 4-(4-{4-[5-(2-phenoxy-ethylsulfanylmethyl)-[1,3,4]oxadiazol-2-yl]-phenoxy}-butyl)-thiomorpholine], with 58 °C.

`CN(C)CCCOc1ccc(-c2nnc(CSCCOc3cccc4ccccc34)o2)cc1` [Example 278, [3-(4-{5-[2-(1-naphthoxy)-ethylsulfanylmethyl]-[1,3,4]oxadiazol-2-yl}-phenoxy)-propyl]-dimethyl-amine] returned a melting point of 101 to 102 °C. Then `c1ccc(OCCSCc2ncc(-c3ccc(OCCCN4CCCCCC4)cc3)o2)cc1` [Example 266, 1-(3-{4-[2-(2-phenoxy-ethylsulfanylmethyl)-oxazol-5-yl]-phenoxy}-propyl)-azepane], with 32 to 35 °C; and `CN(C)CCCOc1ccc(-c2nnc(-c3ccc(Oc4ccccc4)cc3)o2)cc1` [Example 248, Dimethyl-(3-{4-[5-(4-phenoxy-phenyl)-[1,3,4]oxadiazol-2-yl]-phenoxy}-propyl)-amine], with 95 °C; and `CN(C)CCNC(=O)c1cccc(-c2nnc(CSCCOc3ccccc3)o2)c1` [Example 60, N-(2-Dimethylamino-ethyl)3-[5-(2-phenoxy-ethylsulfanylmethyl)-[1,3,4]oxadiazol-2-yl]-benzamide], with 64 °C.

Compound `CC(C)N(CCCOc1ccc(-c2nnc(CSCCOc3ccccc3)o2)cc1)C(C)C` [Example 261, diisopropyl-(3-{4-[5-(2-phenoxy-ethylsulfanylmethyl)-[1,3,4]oxadiazol-2-yl]-phenoxy}-propyl)-amine] had a melting point of 30 to 33 °C. In the case of `CN(C)CCCCNC(=O)c1ccc(-c2nnc(CSCCOc3ccccc3)o2)cc1` [Example 55, N-(4-dimethylaminobutyl)-4-[5-(2-phenoxyethylsulfanylmethyl)-[1,3,4]oxadiazol-2-yl]-benzamide], the melting point lay in the range of 71 to 78 °C. The compound `CN(C)CCCOc1ccc(-c2nnc(CSCCOc3ccc(OC(F)(F)F)cc3)o2)cc1` [Example 274, [3-(4-{5-[2-(4-trifluoromethoxy-phenoxy)-ethylsulfanylmethyl]-[1,3,4]oxadiazol-2-yl}-phenoxy)-propyl]-dimethyl-amine] gave a melting point of 92.5 to 93.5 °C. As for `CN(C)CCNC(=O)Nc1ccc(-c2cnc(COCc3cc4ccccc4o3)o2)cc1` [Example 254, 1-{4-[2-(benzofuran-2-ylmethoxymethyl)-oxazol-5-yl]-phenyl}-3-(2-dimethylamino-ethyl)-urea], the melting point lay within 150 to 154 °C. In turn, `CN(C)CCCOc1ccc(-c2nnc(CSCCOc3ccccc3)o2)cc1F.O=C(O)/C=C\C(=O)O` [Example 287, (3-{2-fluoro-4-[5-(2-phenoxy-ethylsulfanylmethyl)-[1,3,4]oxadiazol-2-yl]-phenoxy}-propyl)-dimethyl-amine; maleic acid salt] yielded a melting point of 70 to 72 °C.

`CN(C)CCCNC(=O)c1ccc(-c2nnc(CSCCCOc3ccccc3)o2)cc1` [Example 47, N-(3-dimethylaminopropyl)-4-[5-(3-phenoxypropylsulfanylmethyl)-[1,3,4]oxadiazol-2-yl]-benzamide] returned a melting point of 77 to 80 °C. Compound `O=C(NCCN1CCCCC1)Nc1ccc(-c2cnc(CSCCOc3ccccc3)o2)cc1` [Example 252] displayed a melting point of 84 to 87 °C. Then `CC(C)N(CCOc1ccc(-c2nnc(CSCCOc3ccccc3)o2)cc1)C(C)C` [Example 73, diisopropyl-(2-{4-[5-(2-phenoxy-ethylsulfanylmethyl)-[1,3,4]oxadiazol-2-yl]-phenoxy}-ethyl)-amine], with 42 to 45 °C; and `COc1cc(-c2nnc(CSCCOc3ccccc3)o2)ccc1OCCCN(C)C.O=C(O)/C=C\C(=O)O` [Example 284, (3-{2-methoxy-4-[5-(2-phenoxy-ethylsulfanylmethyl)-[1,3,4]oxadiazol-2-yl]-phenoxy}-propyl)-dimethyl-amine; maleic acid salt], with 114 to 116 °C; and `CN(C)CCCCCCNC(=O)c1ccc(-c2nnc(CSCCOc3ccccc3)o2)cc1` [Example 57, N-(6-dimethylaminohexyl)-4-[5-(2-phenoxyethylsulfanylmethyl)-[1,3,4]oxadiazol-2-yl]-benzamide], with 86 to 93 °C. The value for `CN(C)CCCOc1ccc(-c2nnc(CCOCCOc3ccccc3)o2)cc1` (as salt: oxalate) [Example 215, Dimethyl-[3-(4-{5-[2-(2-phenxoyethoxy)ethyl]-[1,3,4]oxadiazol-2-yl}phenoxy)propyl]amine] was 116 to 118 °C; that for `COc1cc(-c2nnc(CSCCOc3ccccc3)o2)cc(OC)c1OCCCN(C)C.O=C(O)/C=C\C(=O)O` [Example 285, (3-{2,6-dimethoxy-4-[5-(2-phenoxy-ethylsulfanylmethyl)-[1,3,4]oxadiazol-2-yl]-phenoxy}-propyl)-dimethyl-amine; maleic acid salt] was 103 to 104 °C.
